Test results published in ChEMBL document CHEMBL3137667, “[Drug-induced liver injury; fourteenth updated edition of the bibliographic database of liver injuries and related drugs]” (Gastroenterol Clin Biol, 2004).

How the values were obtained:
[1] = Highest frequency of moderate liver toxicity observed during clinical trials, expressed as a percentage. [column '% BIOL' in source]; conditions: human
[2] = Highest frequency of acute liver toxicity observed during clinical trials, expressed as a percentage. [column '% AIGUE' in source]; conditions: human
[3] = Comments (NB not yet translated). [column 'COMMENTAIRES' in source]; conditions: human
[4] = Times to onset, minimal and maximal, observed in the indexed observations. [column 'DELAI' in source]; conditions: human
[5] = Proposed mechanism(s) of liver damage. [column 'MEC' in source]; conditions: human
[6] = human, serum
[7] = human, serum; remark: listed apart in the source
[8] = human
[9] = human; remark: listed apart in the source
[10] = human; remark: listed apart in the source
[11] = human, serum, 4383 h
[12] = human; remark: listed apart in the source
[13] = human; remark: listed apart in the source
[14] = human; remark: listed apart in the source
[15] = human; remark: listed apart in the source
[16] = human; remark: listed apart in the source
[17] = human; remark: listed apart in the source
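Throughout, for Hepatotoxicity (association with vascular disease): count of indexed literature references reporting vascular liver injury in humans, e.g. peliosis hepatitis, hepatic veno-occlusive disease or Budd-Chiari syndrome.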
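Throughout, for Hepatotoxicity (benign tumour): value is a count of indexed literature references citing a benign tumour confirmed by histopathology.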
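Throughout, for Hepatotoxicity (choleostasis): human cholestatic liver injury, shown by histopathology or by peak ALT or AST elevation over alkaline phosphatase ratio below 2, value counts indexed literature reports.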
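Throughout, for Hepatotoxicity (chronic liver disease): chronic liver injury confirmed by histopathology or persistently raised serum aminotransferase activity beyond 6 months, value given as the count of indexed literature references.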
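Throughout, for Hepatotoxicity (cirrhosis): value is a count of indexed literature references reporting cirrhosis confirmed by histopathology.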
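Throughout, for Hepatotoxicity (cytolytic): human cytolytic liver injury, shown by histopathology or by a ratio above 5 of peak ALT or AST elevation to alkaline phosphatase elevation, value counts indexed references.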
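Throughout, for Hepatotoxicity (granulomatous hepatitis): value is a count of indexed literature references reporting granulomatous liver disease confirmed by histopathology.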
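Throughout, for Hepatotoxicity (malignant tumour): malignant tumour confirmed by histopathology, value gives the count of indexed literature references reporting it.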
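Throughout, for Hepatotoxicity (severe hepatitis): human clinical data: severe hepatitis, meaning potentially life-threatening liver failure or clinically observed cases, the value counts how many indexed literature references report it.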
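Throughout, for Hepatotoxicity (steatosis): steatosis confirmed by histopathology, value is the count of indexed references.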

Structure (SMILES) | Hepatotoxicity (moderate) [1] [%] | Hepatotoxicity (acute) [2] [%] | Hepatotoxicity (comment) [3] | Hepatotoxicity (time to onset) [4] | Hepatotoxicity (mechanism) [5] | Hepatotoxicity (moderate) [6] | Hepatotoxicity (acute) [7] | Hepatotoxicity (cytolytic) [8] | Hepatotoxicity (choleostasis) [9] | Hepatotoxicity (severe hepatitis) [10] | Hepatotoxicity (chronic liver disease) [11] | Hepatotoxicity (cirrhosis) [12] | Hepatotoxicity (granulomatous hepatitis) [13] | Hepatotoxicity (association with vascular disease) [14] | Hepatotoxicity (steatosis) [15] | Hepatotoxicity (malignant tumour) [16] | Hepatotoxicity (benign tumour) [17] | other results
CCC(C)n1ncn(-c2ccc(N3CCN(c4ccc(OCC5COC(Cn6cncn6)(c6ccc(Cl)cc6Cl)O5)cc4)CC3)cc2)c1=O (stereo unspecified) [ITRACONAZOLE] | 91.7 | 30 | CHOLANGITE DUCTOPENIE HNF | 5 days - 7 months | Dose-dependant | 55 | 18 | 10 | 10 | 1 | 0 | 0 | 0 | 0 | 1 | 0 | 1 | –
Nc1nnc(-c2cccc(Cl)c2Cl)c(N)n1 [LAMOTRIGINE] | 7.7 | 0 | DUCTOPENIE CHOLESTASE_PROLONGEE | 5 days - 3 months | Allergic | 7 | 17 | 12 | 1 | 9 | 0 | 0 | 0 | 0 | 0 | 0 | 0 | –
NCCCC[C@H](N[C@@H](CCc1ccccc1)C(=O)O)C(=O)N1CCC[C@H]1C(=O)O [LISINOPRIL ANHYDROUS] | 7.7 | 0 | AC_ANTI-ML RC/LISINOPRIL | 9 days - 5 months | Allergic | 4 | 3 | 2 | 0 | 1 | 1 | 0 | 0 | 0 | 0 | 0 | 0 | –
COc1ccc2[nH]cc(CCNC(C)=O)c2c1 [MELATONIN] | 0 | 0 | AC_ANTI-ML | 3 weeks | Allergic | 0 | 1 | 1 | 0 | 0 | 0 | 0 | 0 | 0 | 0 | 0 | 0 | –
COc1ccc2cc([C@H](C)C(=O)O)ccc2c1 [NAPROXEN] | – | – | RC/FENOPROFENE | 2 days - 2 months | – | 13 | 19 | – | – | – | 0 | 0 | – | 0 | 1 | 0 | 0 | Hepatotoxicity (moderate) ([1]; Liver): 9.5%; Hepatotoxicity (acute) ([2]; Liver): 1.1%; Hepatotoxicity (mechanism) ([5]; Liver): Allergic; Hepatotoxicity (cytolytic) ([8]; Liver): 8; Hepatotoxicity (choleostasis) ([9]; Liver): 8; Hepatotoxicity (severe hepatitis) ([10]; Liver): 4; Hepatotoxicity (granulomatous hepatitis) ([13]; Liver): 1
Fc1ccc([C@@H]2CCNC[C@H]2COc2ccc3c(c2)OCO3)cc1 [PAROXETINE] | 11 | 2 | AC_ANTI-N I/ATRIUM* RC/DOSULEPINE | 6 days - 15 months | Allergic | 6 | 8 | 5 | 2 | 1 | 1 | 0 | 0 | 0 | 0 | 0 | 0 | –
CC(=O)Nc1ccc(OCC(O)CNC(C)C)cc1 (stereo unspecified) [PRACTOLOL] | 0 | 0 | AC_ANTI-N/-M #CBP | 16 months - 4 years | Allergic | 0 | 0 | 0 | 0 | 0 | 0 | 1 | 0 | 0 | 0 | 0 | 0 | –
C[C@]12C=CC(=O)C=C1CC[C@@H]1[C@@H]2C(=O)C[C@@]2(C)[C@H]1CC[C@]2(O)C(=O)CO [PREDNISONE] | 80 | 0 | AGGRAVATION/REACTIVATION_HVB HNF LITHIASE | 10 months | Dose-dependant | 1 | 0 | 0 | 0 | 1 | 0 | 0 | 0 | 0 | 0 | 0 | 1 | –
CN(C)CCCN1c2ccccc2Sc2ccccc21 [PROMAZINE] | 0 | 0 | RC/CHLORPROMAZINE | 2 days - 2 months | Allergic | 1 | 6 | 0 | 6 | 0 | 0 | 0 | 0 | 0 | 0 | 0 | 0 | –
CC(C)NCC(O)COc1cccc2ccccc12 (stereo unspecified) [PROPRANOLOL] | 10 | 0 | CHOLANGIOLITE ENCEPHALOPATHIE | 1 month - 9 months | Allergic | 5 | 5 | 4 | 3 | 0 | 0 | 0 | 0 | 0 | 0 | 0 | 0 | –
CCCc1cc(C(N)=S)ccn1 [PROTIONAMIDE] | 13 | 2.5 | I/PILULE | 3 months - 1 year | Dose-dependant | 8 | 7 | 4 | 0 | 2 | 0 | 0 | 0 | 0 | 0 | 0 | 0 | –
CCc1nc(N)nc(N)c1-c1ccc(Cl)cc1 [PYRIMETHAMINE] | 28.6 | 0 | I/LORAZEPAM | 4 hours - 4 months | Dose-dependant | 8 | 1 | 0 | 1 | 0 | 0 | 0 | 1 | 0 | 1 | 0 | 0 | –
CN(CCOc1ccc(CC2SC(=O)NC2=O)cc1)c1ccccn1 (stereo unspecified) [ROSIGLITAZONE] | 0.2 | 0 | CHOLANGITE | 1 week - 4 years | Allergic | 8 | 10 | 7 | 2 | 5 | 1 | 0 | 3 | 0 | 0 | 0 | 0 | –
